Laboratory results from patent publication US10610509B2, “Combinations of prostaglandins and nitric oxide donors” (NICOX S.A., priority 2014, dated 2020).

Columns and labels:
[1] = system: ocular hypertensive New Zealand White (NZW) rabbits; assay: Intraocular pressure (IOP) lowering activity in ocular hypertensive NZW rabbits (hypertonic saline injection); assay type: in vivo; settings: versus vehicle and versus basal IOP, mean±standard error, compound (12) 0.3%, travoprost 0.004% topical, hypertonic saline (5%) intravitreal
Experimental: Intraocular Pressure (IOP) Lowering Activity in Ocular Hypertensive New Zealand White (NZW) Rabbits
The Intraocular pressure (IOP) lowering activity of the combination of compound (12) (0.3%) and travoprost (0.004%) was assessed in ocular hypertensive rabbits.
Adult male NZW rabbits weighting 1.8-2.0 Kg were used in the experiments.
NZW rabbits were injected with 0.1 ml of hypertonic saline (5%) into the vitreous humor of both eyes. IOP was measured using a Tono-Pen AVIA Vet® at different time points (30, 60, 120 and 240 min) following hypertonic saline injection as well as before topical drug application (basal).
Travoprost (0.004%) or vehicle (5% cremophor-EL; 0.3% DMSO; 0.2 mg/ml BAC in PBS pH 6.0) were topically administered 15 min before hypertonic saline injection.
Compound (12) (0.3%) or vehicle (5% cremophor-EL; 0.3% DMSO; 0.2 mg/ml BAC in PBS pH 6.0) were topically administered immediately after hypertonic saline injection. Eyes were randomly assigned to different treatment groups.
One drop of 0.4% oxybuprocaine hydrochloride (Novesine, Sandoz) was instilled in each eye immediately before each set of ocular pressure measurements.
The ocular hypotensive effects (at […] following topical administration) of travoprost, compound (12) and the combination of compound (12) and travoprost are reported in table 2.
The results reported in table 2 are expressed as IOP change (at 30, 60, 120 and 300 minutes following topical administration) versus vehicle and versus IOP at basal (mean±standard error).

[2] = system: ocular normotensive New Zealand White (NZW) rabbits; assay: Intraocular pressure (IOP) lowering activity in ocular normotensive NZW rabbits; assay type: in vivo; settings: versus vehicle and versus basal IOP, mean±standard error, compound (12) 0.1%, travoprost 0.004% eye drops
Experimental: Intraocular Pressure (IOP) Lowering Activity in Ocular Normotensive New Zealand White (NZW) Rabbits
The Intraocular pressure (IOP) lowering activity of the combination of compound (12) (0.1%) and travoprost (0.004%) was assessed in ocular normotensive rabbits.
Adults male NZW rabbits weighting 1.8-2.0 Kg were used in the experiments.
IOP was measured using a pneumatonometer 30 CLASSIC™ before topical application (basal) and at different time points (30, 60, 120, 180, 240 and 300 min) thereafter. Travoprost (0.004%) or vehicle (5% cremophor-EL; 0.3% DMSO; 0.2 mg/ml BAC in PBS pH 6.0) were topically administered 5 minutes prior to compound (12) (0.1%) or vehicle (same as above) as eye drops into the conjunctiva pocket. Eyes were randomly assigned to different treatment groups. One drop of 0.4% oxybuprocaine hydrochloride (Novesine, Sandoz) was instilled in each eye immediately before each set of ocular pressure measurements.
Results are reported in the table in which the ocular hypotensive activity of the combination, of compound (12) and of travoprost are expressed as IOP change (at 30, 60, 120 and 300 minutes following topical administration) versus vehicle and versus IOP at basal (mean±standard error).

[3] = 30 minutes after topical administration
[4] = 60 minutes after topical administration
[5] = 120 minutes after topical administration
[6] = 180 minutes after topical administration
[7] = 300 minutes after topical administration

Compound	IOP change ([1]; 30 minutes) [mmHg]	IOP change ([1]; 60 minutes) [mmHg]	IOP change ([1]; 120 minutes) [mmHg]	IOP change ([1]; 240 minutes) [mmHg]	IOP change [2, 3] [mmHg]	IOP change [2, 4] [mmHg]	IOP change [2, 5] [mmHg]	IOP change [2, 6] [mmHg]	IOP change [2, 7] [mmHg]
O=C(CCC[C@@H](CO[N+](=O)[O-])O[N+](=O)[O-])O[C@@H]1CO[C@H]2[C@@H]1OC[C@H]2O [Compound (12), (S)-((3R,3aR,6R,6aR)-6-hydroxyhexahydrofuro[3,2-b]furan-3-yl) 5,6-bis(nitrooxy)hexanoate]	−2.4 ± 0.6	−7.7 ± 0.5	−6.4 ± 0.5	−1.8 ± 0.6	−1.4 ± 0.6	−2.1 ± 0.4	−0.3 ± 0.3	0.1 ± 0.5	1.1 ± 0.8
CC(C)OC(=O)CCC/C=C\C[C@@H]1[C@@H](/C=C/[C@@H](O)COc2cccc(C(F)(F)F)c2)[C@H](O)C[C@@H]1O [Travoprost, 5-heptenoic acid, 7-[(1R,2R,3R,5S)-3,5-dihydroxy-2-[(1E,3R)-3-hydroxy-4-[3-(trifluoromethyl)phenoxy]-1-buten-1-yl]cyclopentyl]-, 1-methylethyl ester, (5Z)-]	−2.4 ± 0.5	−5.0 ± 0.8	−5.1 ± 0.7	−1.7 ± 0.4	−1.6 ± 1.6	−0.9 ± 1.0	−1.1 ± 1.2	−0.8 ± 0.4	−0.6 ± 0.1
